From paper PMC8850458, “The AUTOTAC chemical biology platform for targeted protein degradation via the autophagy-lysosome system” (Nature Communications, 2022)
pIC50: −log10 of the molar value. “And” between values parts separate entries of the source, which are not always exact repeats. Equal values may be shown once. Read-outs that look alike come from different tables or passages of the source.

Tests used:
Ub^+ and p62^+ puncta = assay: ICC of Ub (FK2) and p62 puncta in HeLa cells; type: cell-based; details: Fig. 4i
Protocol: Fig. 4 Targeted autophagic delivery and degradation of misfolded protein cargoes using AUTOTACs with aggregate-binding warhead. a A model illustrating the mode of action of aggregate-targeting AUTOTAC. b Chemical structures of PBA-1105, PBA-1106, Anle138b-F105 and PBA-1105b. c In vitro p62 oligomerization assay in HEK293T cells incubated with the indicated compounds in (b). d WB in HEK293T cells treated with MG132 (1 μM, 24 h), HCQ (10 μM, 24 h), PBA-1105, YTK-1105, and PBA (1 μM, 24 h). e Identical to (d), but with Anle-F105. f ICC of HeLa cells treated with HCQ (10 μM, 24 h), MG132 (2 μM, 18 h) or both in the presence of PBA-1106, YOK-1106 or PBA (1 μM, 24 h). Scale bar, 10 μm. g Quantification of (f) (n = 3, 50 cells). h ICC of HeLa cells treated with Anle138b-F105 (1 μM, 24 h). Scale bar, 10 μm. i Quantification of (h) (n = 3, 50 cells). When indicated, n = 3 biologically independent experiments each counting 50 cells. Data are presented as mean values ± SD where relevant. P-values (from a two-sided unpaired t test): ***P < 7.66E−05. Source data are provided with this paper.
Cells were cultured on coverslips coated with poly-L-lysine (Sigma) to observe cellular localization of proteins. Using 4% paraformaldehyde in PBS (pH 7.4), the cells were fixed for 15 min at room temperature and washed three times for 5 min with PBS. After fixing, the cells were permeabilized with 0.5% Triton X-100 in PBS solution for 15 min and washed three times with PBS for 5 min. The cells were blocked containing 2% BSA in PBS solution for 1 h at room temperature. Subsequently, the cells were incubated with primary antibody diluted in 2% BSA/PBS solution overnight at 4 °C, followed by washing the cells three times for 10 min with PBS and incubated with Alexa Fluor-conjugated secondary antibody diluted in 2% BSA/PBS for 30 min at room temperature. Using a DAPI-containing mounting medium (Vector Laboratories), the coverslips were mounted on glass slides. Confocal images were taken by laser scanning confocal microscope 510 Meta (Zeiss) and analyzed by Zeiss LSM Image Browser (ver. 4.2.0.121). […] Quantification results are shown as mean ± S.D. or S.E.M. of three independent experiments

tauP301L = tauP301L (Homo sapiens, UniProt P10636, P618L); assay: WB degradation of tauP301L in SH-SY5Y-tauP301L cells; type: cell-based; details: densitometry, dosage degradation, SH-SY5Y-Tau-TiFC; for Tau normalized to GAPDH and control, AVG %: average of N=3
Sequence of tauP301L (P10636 1-441 isoform P10636-8 P301L): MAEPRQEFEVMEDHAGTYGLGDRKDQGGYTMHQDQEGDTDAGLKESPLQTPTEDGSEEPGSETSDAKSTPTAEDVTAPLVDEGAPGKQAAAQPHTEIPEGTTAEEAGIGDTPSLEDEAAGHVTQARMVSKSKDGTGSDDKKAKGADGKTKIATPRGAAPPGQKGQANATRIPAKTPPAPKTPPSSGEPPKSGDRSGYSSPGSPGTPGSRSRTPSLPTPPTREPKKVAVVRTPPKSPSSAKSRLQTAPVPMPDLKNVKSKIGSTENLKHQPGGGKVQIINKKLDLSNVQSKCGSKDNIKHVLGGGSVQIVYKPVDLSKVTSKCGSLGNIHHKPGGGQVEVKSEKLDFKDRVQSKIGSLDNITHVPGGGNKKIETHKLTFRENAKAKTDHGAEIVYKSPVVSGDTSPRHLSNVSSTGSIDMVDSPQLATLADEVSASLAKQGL
Protocol: (§1) Adherent cells were washed with phosphate-buffered saline (PBS) and cell pellets were lysed in SDS-based sample buffer (277.8 mM Tris-HCI, pH 6.8, 4.4% LDS, 44.4% (v/v) glycerol) containing beta-mercaptoethanol. Alternatively, cell pellets or protein supernatants were lysed in 5X Laemmli sample buffer. Whole-cell lysates were separated using SDS-PAGE, and transferred onto polyvinyllidene difluoride membranes at 100 V for 2 h at 4 °C. The membrane was incubated with a blocking solution consisting 4% skim milk in PBS solution for 30 min at room temperature and incubated with primary antibodies overnight, followed by incubation with host-specific HRP-conjugated secondary antibodies (1:10000 dilution). For signal detection, the membrane was developed with a mixture of ECL solution (Thermo Fisher Scientific) using X-ray films. Densitometry of developed bands was measured and analyzed with ImageJ (NIH, Bethesda).

[1] = target: T1, methionine aminopeptidase 2 (MetAP2) (Homo sapiens, UniProt P50579); assay: Western blot degradation of MetAP2; type: cell-based; details: 293T, 24 h
T1 construct: Targeted autophagic degradation of endogenous oncoproteins by AUTOTAC; endogenous in cells; host or cells: HEK293 / HEK293T, U87-MG
T1 sequence (P50579 whole entry): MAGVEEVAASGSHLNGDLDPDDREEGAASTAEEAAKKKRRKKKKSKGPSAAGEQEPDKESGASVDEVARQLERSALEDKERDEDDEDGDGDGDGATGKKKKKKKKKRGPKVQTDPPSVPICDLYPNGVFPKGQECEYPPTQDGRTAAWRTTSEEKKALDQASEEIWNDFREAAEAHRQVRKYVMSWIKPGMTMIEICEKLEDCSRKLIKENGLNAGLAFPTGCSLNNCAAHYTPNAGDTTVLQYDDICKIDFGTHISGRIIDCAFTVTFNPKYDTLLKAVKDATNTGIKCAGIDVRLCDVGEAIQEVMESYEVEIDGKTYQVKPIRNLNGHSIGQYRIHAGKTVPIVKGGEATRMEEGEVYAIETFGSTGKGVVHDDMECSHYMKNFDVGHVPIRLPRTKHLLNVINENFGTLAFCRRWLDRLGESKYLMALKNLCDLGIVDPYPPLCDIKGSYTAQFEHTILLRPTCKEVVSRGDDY
Protocol: as §1

ACHN cells = assay: WST-based cell viability assay in ACHN cells; details: for WST assay viability, AVG % / WST assay raw reading / WST assay viability relative to con = 100: ACHN; for WST assay raw reading / WST assay viability relative to con = 100: duplicates
LNCaP cells [2] = assay: WST-based cell viability assay in LNCaP cells; details: LNcaP, duplicates
LNCaP cells [3] = details: human
in vitro = details: human
[4] = system: U87-MG glioblastoma cells; assay: Wound healing assay in U87-MG cells; type: cell-based; set-up: wound area, single experiment / wound area, Average: unit not given here; details: Fig. S4j
Protocol: To analyze cell migration in two dimensions, U-87 MG or ACHN cells were plated to a monolayer. Cells were scratched with a sterile 10 μl pipette tip and the debris was removed using medium. Cells were treated with compounds and incubated for different time to monitor cell behavior. Photographs were obtained using a microscope at different time point.

[5] = WST assay viability relative to con = 100
[6] = 4h, relative to 0h, con 63.7844
[7] = 12h, relative to 0h, con 49.0497
[8] = 24h, relative to 0h, con 11.2855

Fc1ccc(COc2cccc(CNCCOCCOCCNc3cccc(-c4cc(-c5ccc6c(c5)OCO6)n[nH]4)c3)c2)cc1 [Anle.-F105]
FK2 (Ub) / p62 colocalization, AVG of cells per 50 cells (Ub^+ and p62^+ puncta; con vs Anle.-F105): 44.6667
FK2 (Ub) / p62 colocalization, percentage AVG (Ub^+ and p62^+ puncta; con vs Anle.-F105): 89.3333 percentage
FK2 (Ub) / p62 colocalization, cells counted per 50 cells (individual replicates) (Ub^+ and p62^+ puncta; con vs Anle.-F105, count out of 50 cells): 44 and 42 and 48
Tau normalized to GAPDH and control, AVG % (tauP301L; 1 nM): 89.5946%
Tau normalized to GAPDH and control, AVG % (tauP301L; 10 nM): 39.4372%
Tau normalized to GAPDH and control, AVG % (tauP301L; 100 nM): 27.9865%
Tau normalized to GAPDH and control, AVG % (tauP301L; 1 uM): 22.4452%
Tau normalized to GAPDH and control, AVG % (tauP301L; 2.5uM): 20.2653%
remaining activity at 2.5 µM (tauP301L; 2.5uM, read-out: (Tau normalized to GAPDH) normalized to control, percentage (individual replicates N=1, N=2, N=3)): 14.5%
Tau normalized to GAPDH and control, AVG % (tauP301L; 5uM): 9.605%
remaining activity at 5 µM (tauP301L; 5uM, read-out: (Tau normalized to GAPDH) normalized to control, percentage (individual replicates N=1, N=2, N=3)): 9.88%
Tau normalized to GAPDH and control, AVG % (tauP301L; 10uM): 11.8682%
remaining activity at 10 µM (tauP301L; 10uM, read-out: (Tau normalized to GAPDH) normalized to control, percentage (individual replicates N=1, N=2, N=3)): 10.3%

CO[C@@H]1[C@H](OC(=O)/C=C/C=C/C=C/C=C/C(=O)O)CC[C@]2(CO2)[C@H]1[C@@]1(C)O[C@@H]1CC=C(C)C [Fumagillin, reference compound]
MetAP2 normalized to control, AVG % ([1]; 2.5uM): 147.616%
MetAP2 normalized to control, AVG % ([1]; 10uM): 145.983%

Oc1ccc(-c2c(-c3ccccc3)nn3c(C(F)(F)F)cc(C(F)(F)F)nc23)cc1 [PHTPP, reference compound]
pIC50 (ACHN cells; ACHN cells, WST-based viability assay, read-out: cytotoxicity IC50): 4.74
WST assay viability, AVG % (ACHN cells; 0.01uM): 98.8656%
WST assay raw reading (ACHN cells; 0.01uM): 1.014 and 0.955
WST assay viability relative to con = 100 (ACHN cells; 0.01uM): 102.269 and 95.4624
WST assay viability, AVG % (ACHN cells; 0.1uM): 95.5201%
WST assay raw reading (ACHN cells; 0.1uM): 0.951 and 0.96
WST assay viability relative to con = 100 (ACHN cells; 0.1uM): 95.001 and 96.0392
WST assay viability, AVG % (ACHN cells; 1uM): 90.0981%
WST assay raw reading (ACHN cells; 1uM): 0.95 and 0.867
WST assay viability relative to con = 100 (ACHN cells; 1uM): 94.8856 and 85.3105
WST assay viability, AVG % (ACHN cells; 10uM): 86.1757%
WST assay raw reading (ACHN cells; 10uM): 0.866 and 0.883
WST assay viability relative to con = 100 (ACHN cells; 10uM): 85.1952 and 87.1563
WST assay viability, AVG % (ACHN cells; 50uM): 10.8441%
WST assay raw reading (ACHN cells; 50uM): 0.239 and 0.204
WST assay viability relative to con = 100 (ACHN cells; 50uM): 12.8629 and 8.825
WST assay viability, AVG % (ACHN cells; 100uM): 2.365%
WST assay raw reading (ACHN cells; 100uM): 0.151 and 0.145
WST assay viability relative to con = 100 (ACHN cells; 100uM): 2.711 and 2.019

C=CC1(C)OC(=O)N(c2cc(Cl)cc(Cl)c2)C1=O (stereo not shown) [Vinclozolin]
WST assay raw reading (LNCaP cells [2]; 0.01uM): 2.034 and 2.182
WST assay raw reading (LNCaP cells [2]; 0.1uM): 1.931 and 2.185
WST assay raw reading (LNCaP cells [2]; 1uM): 1.901 and 2.054
WST assay raw reading (LNCaP cells [2]; 10uM): 1.962 and 2.18
WST assay raw reading (LNCaP cells [2]; 50uM): 1.999 and 2.276
WST assay raw reading (LNCaP cells [2]; 100uM): 2.333 and 2.115
WST assay viability relative to con = 100 (LNCaP cells [3]; 0.01 µM): 103.812
WST assay viability relative to con = 100 (LNCaP cells [3]; 0.1 µM): 103.962
WST assay viability relative to con = 100 (LNCaP cells [3]; 1 µM): 97.4197
WST assay viability relative to con = 100 (LNCaP cells [3]; 10 µM): 103.712
WST assay viability relative to con = 100 (LNCaP cells [3]; 50 µM): 108.507
WST assay viability relative to con = 100 (LNCaP cells [3]; 100 µM): 100.466
viability at 0.01 µM (in vitro; [5]): 96.4%
viability at 0.1 µM (in vitro; [5]): 91.3%
viability at 1 µM (in vitro; [5]): 89.8%
viability at 10 µM (in vitro; [5]): 92.8%
viability at 50 µM (in vitro; [5]): 94.7%
viability at 100 µM (in vitro; [5]): 111%
viability at 0.01 µM (in vitro; WST assay viability, AVG %): 100%
viability at 0.1 µM (in vitro; WST assay viability, AVG %): 97.6%
viability at 1 µM (in vitro; WST assay viability, AVG %): 93.6%
viability at 10 µM (in vitro; WST assay viability, AVG %): 98.3%
viability at 50 µM (in vitro; WST assay viability, AVG %): 102%
viability at 100 µM (in vitro; WST assay viability, AVG %): 106%

COC1C(OC(=O)C=CC=CC=CC=CC(=O)NCCOCCOCCNCc2cccc(OCc3ccccc3)c2)CCC2(CO2)C1C1(C)OC1CC=C(C)C (stereo not shown) [fuma-105]
wound area, single experiment ([4]; 0h): 1322200 and 1143900 and 1293400
wound area, Average % ([4]; 0h (reference = 100)): 100%
wound area, Average ([4]; 0h, con 1278325): 1253167
wound area, single experiment ([4]; 4h): 1229909 and 1112400 and 1025300
wound area, Average ([4]; 4h, con 815372): 1122536
wound area, Average % [4, 6]: 89.576%
wound area, single experiment ([4]; 12h): 999235 and 1073250 and 992572
wound area, Average ([4]; 12h, con 627015): 1021686
wound area, Average % [4, 7]: 81.5283%
wound area, single experiment ([4]; 24h): 562341 and 671624 and 616277
wound area, Average ([4]; 24h, con 144265): 616747
wound area, Average % [4, 8]: 49.2151%

COC1C(OC(=O)C=CC=CC=CC=CC(=O)O)CCC2(CO2)C1C1(C)OC1CC=C(C)C (stereo not shown) [fuma]
wound area, single experiment ([4]; 0h): 1171666 and 1405232 and 1275616
wound area, Average % ([4]; 0h (reference = 100)): 100%
wound area, Average ([4]; 0h, con 1278325): 1284171
wound area, single experiment ([4]; 4h): 1044299 and 1099925 and 1033344
wound area, Average ([4]; 4h, con 815372): 1059189
wound area, Average % [4, 6]: 82.4804%
wound area, single experiment ([4]; 12h): 806233 and 764432
wound area, Average ([4]; 12h, con 627015): 778366
wound area, Average % [4, 7]: 60.6123%
wound area, single experiment ([4]; 24h): 429520 and 509220
wound area, Average ([4]; 24h, con 144265): 482653
wound area, Average % [4, 8]: 37.5848%
